System: 857933-349-R-J2-PDC complex spheroid viability
Experiment: Anticancer human tumor 857933-349-R-J2-PDC patient-derived colon adenocarcinoma cell line growth inhibition [POLQ]
Conditions: for IC50: curve of first compound; for viability, T/C: stronger effect = lower value
Method in brief: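 Growth inhibition in 3D: complex spheroids (tumor PDC, HUVEC, MSC) treated with POLQ inhibitor combinations; where Cmax unknown, highest tested concentration 10 microM, except SN-38 at 1 microM.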

[1] = second compound 0.0316 µM, first compound 0.0316 µM
[2] = second compound 0.0316 µM, first compound 0.1 µM
[3] = second compound 0.0316 µM, first compound 0.316 µM
[4] = second compound 0.0316 µM, first compound 1 µM
[5] = second compound 0.0316 µM, first compound 3.16 µM
[6] = second compound 0.0316 µM, first compound 10 µM
[7] = second compound 0.1 µM, first compound 0.0316 µM
[8] = second compound 0.1 µM, first compound 0.1 µM
[9] = second compound 0.1 µM, first compound 0.316 µM
[10] = second compound 0.1 µM, first compound 1 µM
[11] = second compound 0.1 µM, first compound 3.16 µM
[12] = second compound 0.1 µM, first compound 10 µM
[13] = second compound 0.316 µM, first compound 0.0316 µM
[14] = second compound 0.316 µM, first compound 0.1 µM
[15] = second compound 0.316 µM, first compound 0.316 µM
[16] = second compound 0.316 µM, first compound 1 µM
[17] = second compound 0.316 µM, first compound 3.16 µM
[18] = second compound 0.316 µM, first compound 10 µM
[19] = second compound 1 µM, first compound 0.0316 µM
[20] = second compound 1 µM, first compound 0.1 µM
[21] = second compound 1 µM, first compound 0.316 µM
[22] = second compound 1 µM, first compound 1 µM
[23] = second compound 1 µM, first compound 3.16 µM
[24] = second compound 1 µM, first compound 10 µM
[25] = second compound 3.16 µM, first compound 0.0316 µM
[26] = second compound 3.16 µM, first compound 0.1 µM
[27] = second compound 3.16 µM, first compound 0.316 µM
[28] = second compound 3.16 µM, first compound 1 µM
[29] = second compound 3.16 µM, first compound 3.16 µM
[30] = second compound 3.16 µM, first compound 10 µM
[31] = second compound 10 µM, first compound 0.0316 µM
[32] = second compound 10 µM, first compound 0.1 µM
[33] = second compound 10 µM, first compound 0.316 µM
[34] = second compound 10 µM, first compound 1 µM
[35] = second compound 10 µM, first compound 3.16 µM
[36] = second compound 10 µM, first compound 10 µM
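Also: spheroids exposed to compounds for seven days before readout.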

O=C(c1cc(Cc2n[nH]c(=O)c3ccccc23)ccc1F)N1CCN(C(=O)C2CC2)CC1 + Nc1ccc(C#CCN(C(=O)Cc2ncc(C(F)(F)F)cc2C(F)(F)F)c2ccc(F)cc2)nn1
IC50 (second compound 0.0316 µM): > 10000 nM | IC50 (second compound 0.1 µM): > 10000 nM | IC50 (second compound 0.316 µM): > 10000 nM | IC50 (second compound 1 µM): > 10000 nM | IC50 (second compound 3.16 µM): > 10000 nM | IC50 (second compound 10 µM): > 10000 nM | viability, T/C [1]: 84.3% | viability, T/C [2]: 109% | viability, T/C [3]: 94.2% | viability, T/C [4]: 81.7% | viability, T/C [5]: 97.1% | viability, T/C [6]: 88.1% | viability, T/C [7]: 102% | viability, T/C [8]: 104% | viability, T/C [9]: 105% | viability, T/C [10]: 84.9% | viability, T/C [11]: 99.1% | viability, T/C [12]: 106% | viability, T/C [13]: 101% | viability, T/C [14]: 81.2% | viability, T/C [15]: 83.8% | viability, T/C [16]: 94.7% | viability, T/C [17]: 98.2% | viability, T/C [18]: 83.4% | viability, T/C [19]: 104% | viability, T/C [20]: 98.4% | viability, T/C [21]: 90.5% | viability, T/C [22]: 94.8% | viability, T/C [23]: 82.6% | viability, T/C [24]: 87.5% | viability, T/C [25]: 90.7% | viability, T/C [26]: 106% | viability, T/C [27]: 92.9% | viability, T/C [28]: 95% | viability, T/C [29]: 101% | viability, T/C [30]: 90.9% | viability, T/C [31]: 88.1% | viability, T/C [32]: 93.9% | viability, T/C [33]: 95.5% | viability, T/C [34]: 89% | viability, T/C [35]: 74% | viability, T/C [36]: 83.9%

COc1cccc2c1C(=O)c1c(O)c3c(c(O)c1C2=O)CC(O)(C(=O)CO)CC3OC1CC(N)C(O)C(C)O1 (stereo unspecified) + Nc1ccc(C#CCN(C(=O)Cc2ncc(C(F)(F)F)cc2C(F)(F)F)c2ccc(F)cc2)nn1
IC50 (second compound 0.0316 µM): 220 nM | IC50 (second compound 0.1 µM): 212 nM | IC50 (second compound 0.316 µM): 234 nM | IC50 (second compound 1 µM): 216 nM | IC50 (second compound 3.16 µM): 175 nM | IC50 (second compound 10 µM): 149 nM | viability, T/C [1]: 74.9% | viability, T/C [2]: 63% | viability, T/C [3]: 43.9% | viability, T/C [4]: 5.65% | viability, T/C [5]: 0.31% | viability, T/C [6]: 0.26% | viability, T/C [7]: 74.3% | viability, T/C [8]: 67.1% | viability, T/C [9]: 40.7% | viability, T/C [10]: 5.86% | viability, T/C [11]: 0.25% | viability, T/C [12]: 0.17% | viability, T/C [13]: 65% | viability, T/C [14]: 85.6% | viability, T/C [15]: 41.1% | viability, T/C [16]: 5.61% | viability, T/C [17]: 0.2% | viability, T/C [18]: 0.19% | viability, T/C [19]: 83% | viability, T/C [20]: 75.7% | viability, T/C [21]: 36.9% | viability, T/C [22]: 9.45% | viability, T/C [23]: 0.22% | viability, T/C [24]: 0.23% | viability, T/C [25]: 72.5% | viability, T/C [26]: 60.4% | viability, T/C [27]: 37.9% | viability, T/C [28]: 5.43% | viability, T/C [29]: 0.39% | viability, T/C [30]: 0.28% | viability, T/C [31]: 66.9% | viability, T/C [32]: 63% | viability, T/C [33]: 26.8% | viability, T/C [34]: 6.24% | viability, T/C [35]: 0.35% | viability, T/C [36]: 0.32%

Nc1ccn(C2OC(CO)C(O)C2(F)F)c(=O)n1 (stereo unspecified) + Cc1cccc(N(C)C(=O)C2C(O)CCN2c2nc(C)cc(C(F)(F)F)c2C#N)c1
IC50 (second compound 0.0316 µM): 169 nM | IC50 (second compound 0.1 µM): 175 nM | IC50 (second compound 0.316 µM): 117 nM | IC50 (second compound 1 µM): 141 nM | IC50 (second compound 3.16 µM): 146 nM | IC50 (second compound 10 µM): 126 nM | viability, T/C [1]: 81.5% | viability, T/C [2]: 62.4% | viability, T/C [3]: 35.5% | viability, T/C [4]: 15.5% | viability, T/C [5]: 13.2% | viability, T/C [6]: 11.9% | viability, T/C [7]: 82.9% | viability, T/C [8]: 68.2% | viability, T/C [9]: 30.5% | viability, T/C [10]: 15.2% | viability, T/C [11]: 12.4% | viability, T/C [12]: 7.96% | viability, T/C [13]: 73.8% | viability, T/C [14]: 54% | viability, T/C [15]: 26.5% | viability, T/C [16]: 15.5% | viability, T/C [17]: 13.2% | viability, T/C [18]: 10.8% | viability, T/C [19]: 78.3% | viability, T/C [20]: 61.4% | viability, T/C [21]: 23.1% | viability, T/C [22]: 18.2% | viability, T/C [23]: 12.1% | viability, T/C [24]: 10% | viability, T/C [25]: 65.2% | viability, T/C [26]: 60% | viability, T/C [27]: 30.7% | viability, T/C [28]: 15.7% | viability, T/C [29]: 10.1% | viability, T/C [30]: 10.3% | viability, T/C [31]: 80.6% | viability, T/C [32]: 53.7% | viability, T/C [33]: 33.6% | viability, T/C [34]: 17.4% | viability, T/C [35]: 12.2% | viability, T/C [36]: 11.4%

Source: PubChem BioAssay AID1963836 (Molecular Pharmacology Branch, DTP, NCI, 2024)
